# From PubChem BioAssay AID1745844 (Carcinogenic Potency Database (CPDB), 2022)
# Activity calls are given as the source filed them. No rule for the calls is given here.
# Test system: rodent lifetime carcinogenesis bioassay, tumor incidence TD50
# Test: chronic cancer bioassays in animals – CPDB, compiled studies (AID 1745844)
structure (smiles),measurement,setting,value
O=NN1CC=CCC1,TD50,"rat, strain Fischer 344, females, in drinking water, site: esophagus, lesion: several types, types named in the paper, dosed 25 weeks, study length 128 weeks",0.216 mg/kg/day
same,TD50,"rat, strain Fischer 344, females, in drinking water, site: esophagus, lesion: several types, types named in the paper, dosed 70 weeks, study length 100 weeks",0.127 mg/kg/day
same,TD50,"rat, strain Fischer 344, females, in drinking water, site: esophagus, lesion: several types, types named in the paper, dosed 100 weeks, study length 128 weeks",0.0669 mg/kg/day
same,TD50,"rat, strain Fischer 344, females, in drinking water, site: esophagus, lesion: squamous-cell carcinoma, dosed 100 weeks, study length 128 weeks",0.43 mg/kg/day
same,TD50,"rat, strain Fischer 344, females, in drinking water, site: liver, lesion: hemangiosarcoma, dosed 25 weeks, study length 128 weeks",4.04 mg/kg/day
same,carcinogen call,"rat, strain Fischer 344, females, in drinking water, site: liver, lesion: hepatocellular carcinoma, dosed 25 weeks, study length 128 weeks",positive
same,TD50,"rat, strain Fischer 344, females, in drinking water, site: liver, lesion: hyperplastic nodule, dosed 70 weeks, study length 100 weeks",2.15 mg/kg/day
same,TD50,"rat, strain Fischer 344, females, in drinking water, site: liver, lesion: hyperplastic nodule, dosed 100 weeks, study length 128 weeks",0.284 mg/kg/day
same,carcinogen call,"rat, strain Fischer 344, females, in drinking water, site: liver, lesion: several types, types named in the paper, dosed 25 weeks, study length 128 weeks",positive
same,TD50,"rat, strain Fischer 344, females, in drinking water, site: liver, lesion: several types, types named in the paper, dosed 100 weeks, study length 128 weeks",0.132 mg/kg/day
same,carcinogen call,"rat, strain Fischer 344, females, in drinking water, site: stomach, nonglandular, lesion: basal-cell papilloma, dosed 25 weeks, study length 128 weeks",positive
same,TD50,"rat, strain Fischer 344, females, in drinking water, site: stomach, nonglandular, lesion: basal-cell papilloma, dosed 100 weeks, study length 128 weeks",0.0551 mg/kg/day
same,TD50,"rat, strain Fischer 344, females, in drinking water, site: upper gastrointestinal tract, lesion: carcinoma, dosed 25 weeks, study length 128 weeks",0.271 mg/kg/day
same,TD50,"rat, strain Fischer 344, females, in drinking water, site: upper gastrointestinal tract, lesion: carcinoma, dosed 70 weeks, study length 100 weeks",0.0966 mg/kg/day
same,TD50,"rat, strain Fischer 344, females, in drinking water, site: upper gastrointestinal tract, lesion: carcinoma, dosed 100 weeks, study length 128 weeks",0.0856 mg/kg/day
same,TD50,"rat, strain Fischer 344, females, in drinking water, site: upper gastrointestinal tract, lesion: several types, types named in the paper, dosed 25 weeks, study length 128 weeks",0.142 mg/kg/day
same,carcinogen call,"rat, strain Fischer 344, females, in drinking water, site: upper gastrointestinal tract, lesion: several types, types named in the paper, dosed 70 weeks, study length 100 weeks",positive
same,TD50,"rat, strain Fischer 344, females, in drinking water, site: upper gastrointestinal tract, lesion: several types, types named in the paper, dosed 100 weeks, study length 128 weeks",0.0374 mg/kg/day
ClC=CCCl,TD50,"mouse, strain B6C3F1, females, by gavage, site: any site (literature study), lesion: several types, types named in the paper, dosed 104 weeks, study length 106 weeks",34.9 mg/kg/day
same,TD50,"mouse, strain B6C3F1, females, by gavage, site: liver, lesion: hepatocellular adenoma + hepatocellular carcinoma + neoplastic nodule, dosed 104 weeks, study length 106 weeks",89.3 mg/kg/day
same,TD50,"mouse, strain B6C3F1, females, by gavage, site: liver, lesion: hepatocellular adenoma + hepatocellular carcinoma, dosed 104 weeks, study length 106 weeks",89.3 mg/kg/day
same,TD50,"mouse, strain B6C3F1, females, by gavage, site: liver, lesion: hepatocellular adenoma, dosed 104 weeks, study length 106 weeks",215 mg/kg/day
same,TD50,"mouse, strain B6C3F1, females, by gavage, site: lung + stomach + urinary bladder, lesion: alveolar/bronchiolar adenoma + squamous-cell carcinoma + squamous-cell papilloma + transitional-cell carcinoma, dosed 104 weeks, study length 106 weeks",36.3 mg/kg/day
same,TD50,"mouse, strain B6C3F1, females, by gavage, site: lung, lesion: alveolar/bronchiolar adenoma + alveolar/bronchiolar carcinoma, dosed 104 weeks, study length 106 weeks",182 mg/kg/day
same,TD50,"mouse, strain B6C3F1, females, by gavage, site: lung, lesion: alveolar/bronchiolar adenoma, dosed 104 weeks, study length 106 weeks",149 mg/kg/day
same,TD50,"mouse, strain B6C3F1, females, by gavage, site: stomach, lesion: squamous-cell carcinoma + squamous-cell papilloma, dosed 104 weeks, study length 106 weeks",344 mg/kg/day
same,TD50,"mouse, strain B6C3F1, females, by gavage, site: urinary bladder, lesion: transitional-cell carcinoma, dosed 104 weeks, study length 106 weeks",49.6 mg/kg/day
same,carcinogen call,"mouse, strain B6C3F1, females, in feed, site: liver, lesion: hepatocellular adenoma, dosed 104 weeks, study length 104 weeks",negative (inactive)
same,carcinogen call,"mouse, strain B6C3F1, females, in feed, site: liver, lesion: hepatocellular carcinoma, dosed 104 weeks, study length 104 weeks",negative (inactive)
same,carcinogen call,"mouse, strain B6C3F1, females, in feed, site: lung, lesion: alveolar/bronchiolar adenoma, dosed 104 weeks, study length 104 weeks",negative (inactive)
same,carcinogen call,"mouse, strain B6C3F1, females, in feed, site: lung, lesion: alveolar/bronchiolar carcinoma, dosed 104 weeks, study length 104 weeks",negative (inactive)
same,carcinogen call,"mouse, strain B6C3F1, females, in feed, site: stomach, lesion: one or several types, types not named, dosed 52 weeks, study length 52 weeks",negative (inactive)
same,carcinogen call,"mouse, strain B6C3F1, females, inhaled, site: any site (literature study), lesion: several types, types named in the paper, dosed 104 weeks, study length 104 weeks",negative (inactive)
same,TD50,"mouse, strain B6C3F1, females, inhaled, site: liver, lesion: several types, types named in the paper, dosed 104 weeks, study length 104 weeks",1810 mg/kg/day (inactive)
same,carcinogen call,"mouse, strain B6C3F1, females, inhaled, site: lung, lesion: alveolar/bronchiolar adenoma, dosed 104 weeks, study length 104 weeks",negative (inactive)
same,carcinogen call,"mouse, strain B6C3F1, females, inhaled, site: lung, lesion: one or several types, types not named, dosed 52 weeks, study length 52 weeks",negative (inactive)
same,carcinogen call,"mouse, strain B6C3F1, females, inhaled, site: mesenteric lymph node, lesion: lymphosarcoma, dosed 104 weeks, study length 104 weeks",negative (inactive)
same,TD50,"mouse, strain B6C3F1, females, inhaled, site: pituitary gland, lesion: adenoma, dosed 104 weeks, study length 104 weeks",19 mg/kg/day (inactive)
same,TD50,"mouse, strain B6C3F1, males, by gavage, site: any site (literature study), lesion: several types, types named in the paper, dosed 104 weeks, study length 105 weeks",309 mg/kg/day
same,TD50,"mouse, strain B6C3F1, males, by gavage, site: liver, lesion: hepatocellular adenoma + hepatocellular carcinoma + neoplastic nodule, dosed 104 weeks, study length 105 weeks",1930 mg/kg/day
same,TD50,"mouse, strain B6C3F1, males, by gavage, site: lung, lesion: alveolar/bronchiolar adenoma + alveolar/bronchiolar carcinoma, dosed 104 weeks, study length 105 weeks",127 mg/kg/day
same,TD50,"mouse, strain B6C3F1, males, in feed, site: liver, lesion: hepatocellular adenoma, dosed 104 weeks, study length 104 weeks",78.2 mg/kg/day (inactive)
same,carcinogen call,"mouse, strain B6C3F1, males, in feed, site: liver, lesion: hepatocellular carcinoma, dosed 104 weeks, study length 104 weeks",negative (inactive)
same,TD50,"mouse, strain B6C3F1, males, in feed, site: lung, lesion: alveolar/bronchiolar adenoma, dosed 104 weeks, study length 104 weeks",368 mg/kg/day (inactive)
same,carcinogen call,"mouse, strain B6C3F1, males, in feed, site: lung, lesion: alveolar/bronchiolar carcinoma, dosed 104 weeks, study length 104 weeks",negative (inactive)
same,carcinogen call,"mouse, strain B6C3F1, males, in feed, site: stomach, lesion: one or several types, types not named, dosed 52 weeks, study length 52 weeks",negative (inactive)
same,TD50,"mouse, strain B6C3F1, males, inhaled, site: any site (literature study), lesion: several types, types named in the paper, dosed 104 weeks, study length 104 weeks",229 mg/kg/day
same,TD50,"mouse, strain B6C3F1, males, inhaled, site: lacrimal gland, lesion: cystadenoma, dosed 104 weeks, study length 104 weeks",82.2 mg/kg/day
same,TD50,"mouse, strain B6C3F1, males, inhaled, site: lung, lesion: alveolar/bronchiolar adenoma, dosed 104 weeks, study length 104 weeks",118 mg/kg/day
same,carcinogen call,"mouse, strain B6C3F1, males, inhaled, site: lung, lesion: one or several types, types not named, dosed 52 weeks, study length 52 weeks",negative (inactive)
same,TD50,"rat, strain Fischer 344, females, by gavage, site: liver, lesion: hepatocellular adenoma + hepatocellular carcinoma + neoplastic nodule, dosed 104 weeks, study length 106 weeks",168 mg/kg/day
same,TD50,"rat, strain Fischer 344, females, by gavage, site: stomach, lesion: squamous-cell papilloma, dosed 104 weeks, study length 106 weeks",176 mg/kg/day
same,TD50,"rat, strain Fischer 344, females, by gavage, site: thyroid gland, lesion: follicular-cell adenoma + follicular-cell carcinoma, dosed 104 weeks, study length 106 weeks",137 mg/kg/day
same,TD50,"rat, strain Fischer 344, females, in feed, site: liver, lesion: hepatocellular adenoma, dosed 104 weeks, study length 104 weeks",334 mg/kg/day
same,carcinogen call,"rat, strain Fischer 344, females, in feed, site: stomach, lesion: one or several types, types not named, dosed 52 weeks, study length 52 weeks",negative (inactive)
same,TD50,"rat, strain Fischer 344, females, in feed, site: uterus, lesion: endometrial stromal polyp, dosed 104 weeks, study length 104 weeks",61.4 mg/kg/day
same,carcinogen call,"rat, strain Fischer 344, females, inhaled, site: any site (literature study), lesion: one or several types, types not named, dosed 52 weeks, study length 52 weeks",negative (inactive)
same,carcinogen call,"rat, strain Fischer 344, females, inhaled, site: any site (literature study), lesion: several types, types named in the paper, dosed 105 weeks, study length 105 weeks",negative (inactive)
same,TD50,"rat, strain Fischer 344, females, inhaled, site: liver, lesion: hepatocellular adenoma, dosed 105 weeks, study length 105 weeks",1590 mg/kg/day (inactive)
same,TD50,"rat, strain Fischer 344, males, by gavage, site: forestomach + liver + stomach, lesion: squamous-cell papilloma + neoplastic nodule + squamous-cell carcinoma, dosed 104 weeks, study length 106 weeks",33.2 mg/kg/day
same,TD50,"rat, strain Fischer 344, males, by gavage, site: forestomach + stomach, lesion: squamous-cell papilloma + squamous-cell carcinoma, dosed 104 weeks, study length 106 weeks",64.1 mg/kg/day
same,TD50,"rat, strain Fischer 344, males, by gavage, site: forestomach + stomach, lesion: squamous-cell papilloma, dosed 104 weeks, study length 106 weeks",97 mg/kg/day
same,TD50,"rat, strain Fischer 344, males, by gavage, site: liver, lesion: hepatocellular adenoma + hepatocellular carcinoma + neoplastic nodule, dosed 104 weeks, study length 106 weeks",68 mg/kg/day
same,TD50,"rat, strain Fischer 344, males, by gavage, site: liver, lesion: hepatocellular carcinoma + neoplastic nodule, dosed 104 weeks, study length 106 weeks",68 mg/kg/day
same,TD50,"rat, strain Fischer 344, males, by gavage, site: liver, lesion: neoplastic nodule, dosed 104 weeks, study length 106 weeks",76 mg/kg/day
same,TD50,"rat, strain Fischer 344, males, by gavage, site: stomach, lesion: squamous-cell carcinoma, dosed 104 weeks, study length 106 weeks",213 mg/kg/day
same,TD50,"rat, strain Fischer 344, males, in feed, site: liver, lesion: hepatocellular adenoma, dosed 104 weeks, study length 104 weeks",100 mg/kg/day
same,TD50,"rat, strain Fischer 344, males, in feed, site: liver, lesion: hepatocellular carcinoma, dosed 104 weeks, study length 104 weeks",1360 mg/kg/day
same,carcinogen call,"rat, strain Fischer 344, males, in feed, site: stomach, lesion: one or several types, types not named, dosed 52 weeks, study length 52 weeks",negative (inactive)
same,carcinogen call,"rat, strain Fischer 344, males, inhaled, site: any site (literature study), lesion: one or several types, types not named, dosed 52 weeks, study length 52 weeks",negative (inactive)
same,carcinogen call,"rat, strain Fischer 344, males, inhaled, site: any site (literature study), lesion: several types, types named in the paper, dosed 105 weeks, study length 105 weeks",negative (inactive)
same,carcinogen call,"rat, strain Fischer 344, males, inhaled, site: liver, lesion: hepatocellular adenoma, dosed 105 weeks, study length 105 weeks",negative (inactive)
